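The compound was tested at five concentrations on cells cultured in 96-well plates, with a 48-hour exposure period. GI50 = concentration required for 50% inhibition of growth. TGI is the concentration that stops growth completely.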
How the values were obtained:
Assay in all cases: NCI anticancer screen, dose series, 48 h
[1] = tested on: HCC-2998 colon
[2] = tested on: HS 578T breast
[3] = tested on: SK-OV-3 ovarian
[4] = tested on: 786-0 renal
[5] = tested on: T-47D breast
[6] = tested on: NCI-H460 lung
[7] = tested on: IGROV1 ovarian
[8] = tested on: SR leukemia
[9] = tested on: SNB-75 CNS
[10] = tested on: SNB-19 CNS
[11] = tested on: SK-MEL-5 melanoma
[12] = tested on: LOX IMVI melanoma
[13] = tested on: SK-MEL-2 melanoma
[14] = tested on: HCT-116 colon
[15] = tested on: MDA-MB-435
[16] = tested on: COLO 205 colon
[17] = tested on: RPMI-8226 leukemia
[18] = tested on: M14 melanoma
[19] = tested on: MALME-3M melanoma
[20] = tested on: UO-31 renal
[21] = tested on: HOP-92 NSCLC
[22] = tested on: MDA-N
[23] = tested on: OVCAR-8 ovarian
[24] = tested on: SF-539 CNS
[25] = tested on: HCT-15 colon
[26] = tested on: DU-145 prostate
[27] = tested on: ACHN renal
[28] = tested on: UACC-62 melanoma
[29] = tested on: RXF 393 renal
[30] = tested on: A498 renal
[31] = tested on: NCI-H522 lung
[32] = tested on: NCI-H226 lung
[33] = tested on: MOLT-4 leukemia
[34] = tested on: OVCAR-3 ovarian
[35] = tested on: EKVX NSCLC
[36] = tested on: U251 CNS
[37] = tested on: K-562 leukemia
[38] = tested on: SF-295 CNS
[39] = tested on: NCI/ADR-RES ovarian
[40] = tested on: NCI-H23 lung
[41] = tested on: SK-MEL-28 melanoma
[42] = tested on: HT29 colon
[43] = tested on: TK-10 renal
[44] = tested on: PC-3 prostate
[45] = tested on: UACC-257 melanoma
[46] = tested on: HOP-62 NSCLC
[47] = tested on: HL-60(TB) leukemia
[48] = tested on: CAKI-1 renal
[49] = tested on: MCF7 breast
[50] = tested on: OVCAR-4 ovarian
[51] = tested on: SF-268 CNS
[52] = tested on: KM12 colon
[53] = tested on: A549 NSCLC
[54] = tested on: OVCAR-5 ovarian
[55] = tested on: SW-620 colon
[56] = tested on: MDA-MB-231 breast
[57] = tested on: CCRF-CEM leukemia
[58] = tested on: SN12C renal
[59] = tested on: BT-549 breast

Structure (SMILES): CO/C(N)=C(\C#N)N=Cc1ccccc1
- TGI [1]: > 100 µM
- TGI [2]: > 100 µM
- TGI [3]: > 100 µM
- TGI [4]: > 100 µM
- TGI [5]: > 100 µM
- TGI [6]: > 100 µM
- TGI [7]: > 100 µM
- TGI [8]: > 100 µM
- TGI [9]: > 100 µM
- TGI [10]: > 100 µM
- TGI [11]: > 100 µM
- TGI [12]: > 100 µM
- TGI [13]: > 100 µM
- TGI [14]: > 100 µM
- TGI [15]: > 100 µM
- TGI [16]: > 100 µM
- TGI [17]: > 100 µM
- TGI [18]: > 100 µM
- TGI [19]: > 100 µM
- TGI [20]: > 100 µM
- TGI [21]: > 100 µM
- TGI [22]: > 100 µM
- TGI [23]: > 100 µM
- TGI [24]: > 100 µM
- TGI [25]: > 100 µM
- TGI [26]: > 100 µM
- TGI [27]: > 100 µM
- TGI [28]: > 100 µM
- TGI [29]: > 100 µM
- TGI [30]: > 100 µM
- TGI [31]: > 100 µM
- TGI [32]: > 100 µM
- TGI [33]: > 100 µM
- TGI [34]: > 100 µM
- TGI [35]: > 100 µM
- TGI [36]: > 100 µM
- TGI [37]: > 100 µM
- TGI [38]: > 100 µM
- TGI [39]: > 100 µM
- TGI [40]: > 100 µM
- TGI [41]: > 100 µM
- TGI [42]: > 100 µM
- TGI [43]: > 100 µM
- TGI [44]: > 100 µM
- TGI [45]: > 100 µM
- TGI [46]: > 100 µM
- TGI [47]: > 100 µM
- TGI [48]: > 100 µM
- TGI [49]: > 100 µM
- TGI [50]: > 100 µM
- TGI [51]: > 100 µM
- TGI [52]: > 100 µM
- TGI [53]: > 100 µM
- TGI [54]: > 100 µM
- TGI [55]: > 100 µM
- TGI [56]: > 100 µM
- TGI [57]: > 100 µM
- TGI [58]: > 100 µM
- TGI [59]: > 100 µM

Structure (SMILES): COc1cc(/C=C2\CCC(C)C3=C(c4cc(OC)c(OC)c(OC)c4)C(C#N)=C(N)OC32)cc(OC)c1OC (centres undefined)
- TGI [1]: 32.5 µM
- TGI [2]: 14.6 µM
- TGI [3]: > 57.2 µM
- TGI [4]: 8.83 µM
- TGI [5]: 12.9 µM
- TGI [6]: > 100 µM
- TGI [7]: > 52.3 µM
- TGI [8]: > 37.8 µM
- TGI [9]: 9.24 µM
- TGI [10]: > 100 µM
- TGI [11]: 7.24 µM
- TGI [12]: 8.99 µM
- TGI [13]: 4.46 µM
- TGI [14]: 11.3 µM
- TGI [15]: 21.6 µM
- TGI [16]: 5.48 µM
- TGI [17]: 6.08 µM
- TGI [18]: 6.92 µM
- TGI [19]: 9.03 µM
- TGI [20]: > 100 µM
- TGI [21]: > 31.3 µM
- TGI [22]: 21.9 µM
- TGI [23]: > 73 µM
- TGI [24]: 4.98 µM
- TGI [25]: > 68.2 µM
- TGI [26]: > 100 µM
- TGI [27]: > 65.6 µM
- TGI [28]: 23.2 µM
- TGI [29]: 4.36 µM
- TGI [30]: > 53.4 µM
- TGI [31]: 7.75 µM
- TGI [32]: 6.96 µM
- TGI [33]: > 49 µM
- TGI [34]: > 60.1 µM
- TGI [35]: 47.6 µM
- TGI [36]: 25.7 µM
- TGI [37]: > 100 µM
- TGI [38]: > 40.6 µM
- TGI [39]: 99.2 µM
- TGI [40]: > 100 µM
- TGI [41]: 13.9 µM
- TGI [42]: 5.02 µM
- TGI [43]: > 100 µM
- TGI [44]: 24.8 µM
- TGI [45]: > 65.4 µM
- TGI [46]: > 100 µM
- TGI [47]: > 25 µM
- TGI [48]: > 65.2 µM
- TGI [49]: 7.4 µM
- TGI [50]: > 59.6 µM
- TGI [51]: > 100 µM
- TGI [52]: 36.8 µM
- TGI [53]: > 100 µM
- TGI [54]: > 64.6 µM
- TGI [55]: > 100 µM
- TGI [56]: 10.9 µM
- TGI [57]: 26.2 µM
- TGI [58]: > 60.6 µM
- TGI [59]: > 100 µM

Structure (SMILES): C[C@@H]1CCC2[C@@H](C)[C@@H](OC3CCC(O)CC3)OC3O[C@@]4(C)CCC1[C@]32OO4 (some centres undefined)
- GI50 [1]: > 100 µM
- TGI [1]: > 100 µM
- GI50 [2]: 90.2 µM
- TGI [2]: > 100 µM
- GI50 [3]: > 100 µM
- TGI [3]: > 100 µM
- GI50 [4]: > 100 µM
- TGI [4]: > 100 µM
- GI50 [5]: 19.9 µM
- TGI [5]: > 100 µM
- GI50 [6]: > 100 µM
- TGI [6]: > 100 µM
- GI50 [7]: > 100 µM
- TGI [7]: > 100 µM
- GI50 [8]: 7.84 µM
- TGI [8]: > 100 µM
- GI50 [9]: > 100 µM
- TGI [9]: > 100 µM
- GI50 [10]: > 100 µM
- TGI [10]: > 100 µM
- GI50 [11]: 36.3 µM
- TGI [11]: > 100 µM
- GI50 [12]: 24.5 µM
- TGI [12]: > 100 µM
- GI50 [13]: 92.6 µM
- TGI [13]: > 100 µM
- GI50 [14]: 71.2 µM
- TGI [14]: > 100 µM
- GI50 [15]: > 100 µM
- TGI [15]: > 100 µM
- GI50 [16]: 8.83 µM
- TGI [16]: 32.7 µM
- GI50 [17]: 7.04 µM
- TGI [17]: > 100 µM
- GI50 [18]: > 100 µM
- TGI [18]: > 100 µM
- GI50 [19]: > 100 µM
- TGI [19]: > 100 µM
- GI50 [20]: 6.3 µM
- TGI [20]: > 100 µM
- GI50 [21]: 23.1 µM
- TGI [21]: > 100 µM
- GI50 [22]: > 100 µM
- TGI [22]: > 100 µM
- GI50 [23]: 16.1 µM
- TGI [23]: > 100 µM
- GI50 [24]: > 100 µM
- TGI [24]: > 100 µM
- GI50 [25]: 3.61 µM
- TGI [25]: > 100 µM
- GI50 [26]: > 100 µM
- TGI [26]: > 100 µM
- GI50 [27]: 67.2 µM
- TGI [27]: > 100 µM
- GI50 [28]: 72 µM
- TGI [28]: > 100 µM
- GI50 [29]: > 100 µM
- TGI [29]: > 100 µM
- GI50 [30]: > 100 µM
- TGI [30]: > 100 µM
- GI50 [31]: 38.5 µM
- TGI [31]: > 100 µM
- GI50 [32]: > 100 µM
- TGI [32]: > 100 µM
- GI50 [33]: 10.1 µM
- TGI [33]: > 100 µM
- GI50 [34]: 66.7 µM
- TGI [34]: > 100 µM
- GI50 [35]: 32.5 µM
- TGI [35]: > 100 µM
- GI50 [37]: 26.8 µM
- TGI [37]: > 100 µM
- GI50 [38]: 45.8 µM
- TGI [38]: > 100 µM
- GI50 [39]: 39.9 µM
- TGI [39]: > 100 µM
- GI50 [40]: 96.7 µM
- TGI [40]: > 100 µM
- GI50 [41]: > 100 µM
- TGI [41]: > 100 µM
- GI50 [42]: 97.4 µM
- TGI [42]: > 100 µM
- GI50 [43]: 36.8 µM
- TGI [43]: > 100 µM
- GI50 [44]: 23.9 µM
- TGI [44]: > 100 µM
- GI50 [45]: > 100 µM
- TGI [45]: > 100 µM
- GI50 [46]: > 100 µM
- TGI [46]: > 100 µM
- GI50 [47]: 4.35 µM
- TGI [47]: > 100 µM
- GI50 [48]: 95.9 µM
- TGI [48]: > 100 µM
- GI50 [49]: 38.5 µM
- TGI [49]: > 100 µM
- GI50 [50]: 46.4 µM
- TGI [50]: > 100 µM
- GI50 [51]: 76.5 µM
- TGI [51]: > 100 µM
- GI50 [52]: 51.6 µM
- TGI [52]: > 100 µM
- GI50 [53]: 67.1 µM
- TGI [53]: > 100 µM
- GI50 [54]: 82.4 µM
- TGI [54]: > 100 µM
- GI50 [55]: > 100 µM
- TGI [55]: > 100 µM
- GI50 [56]: > 100 µM
- TGI [56]: > 100 µM
- GI50 [57]: 37.8 µM
- TGI [57]: > 100 µM
- GI50 [58]: > 100 µM
- TGI [58]: > 100 µM
- GI50 [59]: > 100 µM
- TGI [59]: > 100 µM
